Measured values as given in patent publication US7563793B2, “Pyrrolo[1,2-a]quinoxalin-5-(4H)-yl)sulfonyls and carbonyls and their use as estrogenic agents” (Wyeth, priority 2004, dated 2009).
Where two headings read alike, the source gives them in different places.

Key:
Assay type in all cases: cell-based, human
creatine kinase = experiment: Creatine kinase assay in Ad5-wt-ER infected HAECT-1 cells; details: for EC50 / Emax: Homo sapiens; for EC50: HAECT1, CK stimulation, N/O = activity not observed at concentrations tested, read-out: CK IC50; for Emax: HAECT1, relative to maximal stimulation observed with E2, read-out: CK Efficacy; for CK Efficacy: relative to maximal stimulation observed with E2
Procedure: (§1) After four hours, cells were washed with EBM-BSA and incubated overnight in the same medium. […] After two hours, cells were washed and incubated at 34° C. for 1 hour. […] Control (no ER infection) cells were processed as above without Ad5-wt-hERα virus infection. […] Cells were subsequently washed with 300 μl of Dulbecco's phosphate buffered saline and lysed in 50 μl of Cell Culture Lysis Reagent (Promega). Luciferase was determined on a Wallac Victor^2 Luminometer (Gaithersburg, Md.) using 10 μl of lysate and mixing with 100 lμof Promega Luciferase Assay reagent. […] For IC50 and EC50 calculations, mean IL-6, luciferase or CK values versus log10 of the compound concentration were fitted to a four parameter logistic equation. The IC50/EC50 value, ‘Hill slope’, upper and lower limits of the curve were iteratively estimated.

IL-6 = IL-6 assay (ELISA) in Ad5-wt-ER infected HAECT-1 cells (IL-1β induced); details: for Emax: HAECT1, relative to maximal inhibition observed with E2, read-out: IL-6 Efficacy; for IL-6 Efficacy: relative to maximal inhibition observed with E2
Procedure: as §1

ER/Nf-kB = experiment: ER/NF-κB luciferase reporter assay in Ad5-wt-ER infected HAECT-1 cells (IL-1β induced); details: for ER/Nf-kB Efficacy: relative to maximal inhibition observed with E2
Procedure: as §1

| Structure (SMILES) | EC50 (creatine kinase) | IC50 (IL-6; Homo sapiens, HAECT1) | Emax (creatine kinase) | Emax (IL-6; Homo sapiens) | CK Efficacy (creatine kinase) | IC50 (ER/Nf-kB) | ER/Nf-kB Efficacy (ER/Nf-kB) | other results |
| --- | --- | --- | --- | --- | --- | --- | --- | --- |
| CCC1c2cccn2-c2cc(F)c(F)cc2N1S(=O)(=O)c1ccc(O)c(C)c1 (centres unmarked) [Example 5, 4-[(4-ethyl-7,8-difluoropyrrolo[1,2-a]quinoxalin-5-(4H)-yl)sulfonyl]-2-methylphenol] |  |  |  |  | 37% | 82 nM | 99% |  |
| CCC1c2cccn2-c2cc(F)c(F)cc2N1S(=O)(=O)c1ccc(O)cc1 (centres unmarked) [Example 7, 4-[(4-ethyl-7,8-difluoropyrrolo[1,2-a]quinoxalin-5-(4H)-yl)sulfonyl]phenol] |  |  |  |  | 37% | 26 nM | 113% |  |
| CC1c2cccn2-c2cc(F)c(F)cc2N1S(=O)(=O)c1ccc(O)cc1 (centres unmarked) [Example 10, 4-[(7,8-difluoro-4-methylpyrrolo[1,2-a]quinoxalin-5-(4H)-yl)sulfonyl]phenol] |  |  |  |  | 39% | 14 nM | 97% |  |
| CC1c2ccc(F)n2-c2cc(F)c(F)cc2N1S(=O)(=O)c1ccc(O)cc1 (centres unmarked) [Example 13, 4-[(1,7,8-trifluoro-4-methylpyrrolo[1,2-a]quinoxalin-5-(4H)-yl)sulfonyl]phenol] |  |  |  |  |  | 20 nM | 104% |  |
| CC1(C)c2cccn2-c2cc(F)c(F)cc2N1S(=O)(=O)c1ccc(O)cc1 [Example 15, 4-[(7,8-difluoro-4,4-dimethylpyrrolo[1,2-a]quinoxalin-5-(4H)-yl)sulfonyl]phenol] |  |  |  |  |  | 150 nM | 105% |  |
| CCC1c2cccn2-c2ccc(F)cc2N1S(=O)(=O)c1ccc(O)c(C)c1 (centres unmarked) [Example 19, 4-[(4-ethyl-7-fluoropyrrolo[1,2-a]quinoxalin-5-(4H)-yl)sulfonyl]-2-methylphenol] |  |  |  |  | 52% | 34 nM | 94% |  |
| CCC1c2cccn2-c2ccc(F)cc2N1S(=O)(=O)c1ccc(O)cc1 (centres unmarked) [Example 21, 4-[(4-ethyl-7-fluoropyrrolo[1,2-a]quinoxalin-5-(4H)-yl)sulfonyl]phenol] |  |  |  |  | 38% | 71 nM | 97% |  |
| CCC1c2ccc(F)n2-c2ccc(F)cc2N1S(=O)(=O)c1ccc(O)cc1 (centres unmarked) [Example 23, 4-[(4-ethyl-1,7-difluoropyrrolo[1,2-a]quinoxalin-5-(4H)-yl)sulfonyl]phenol] |  |  |  |  | 52% |  |  | IC50 (IL-6): 6.6 nM; IL-6 Efficacy (IL-6): 162% |
| CCC1c2ccc(F)n2-c2ccc(F)cc2N1S(=O)(=O)c1ccc(O)c(C)c1 (centres unmarked) [Example 28, 4-[(4-ethyl-1,7-difluoropyrrolo[1,2-a]quinoxalin-5-(4H)-yl)sulfonyl]-2-methylphenol] |  |  |  |  | 45% | 52 nM | 105% |  |
| CCC1c2ccc(Br)n2-c2ccc(F)cc2N1S(=O)(=O)c1ccc(O)c(C)c1 (centres unmarked) [Example 29, 4-[(1-bromo-4-ethyl-7-fluoropyrrolo[1,2-a]quinoxalin-5-(4H)-yl)sulfonyl]-2-methylphenol] |  |  |  |  | 28% | 587 nM | 100% |  |
| CCC1c2cccn2-c2ccc(F)cc2N1S(=O)(=O)c1ccc(O)c(Cl)c1 (centres unmarked) [Example 31, 2-chloro-4-[(4-ethyl-7-fluoropyrrolo[1,2-a]quinoxalin-5-(4H)-yl)sulfonyl]phenol] |  |  |  |  |  | 364 nM | 104% |  |
| CCC1c2cccn2-c2ccc(F)cc2N1S(=O)(=O)c1cc(C)c(O)c(C)c1 (centres unmarked) [Example 38, 4-[(4-ethyl-7-fluoropyrrolo[1,2-a]quinoxalin-5-(4H)-yl)sulfonyl]-2,6-dimethylphenol] |  |  |  |  | 38% | 201 nM | 109% |  |
| CC1(C)c2cccn2-c2ccc(Br)cc2N1S(=O)(=O)c1ccc(O)cc1 [Example 41, 4-[(7-bromo-4,4-dimethylpyrrolo[1,2-a]quinoxalin-5-(4H)-yl)sulfonyl]phenol] |  |  |  |  | 35% | 217 nM | 109% |  |
| CCC1c2cccn2-c2ccc(Br)cc2N1S(=O)(=O)c1ccc(O)cc1 (centres unmarked) [Example 44, 4-[(7-bromo-4-ethylpyrrolo[1,2-a]quinoxalin-5-(4H)-yl)sulfonyl]phenol] |  |  |  |  | 51% | 42 nM | 97% |  |
| CCC1c2ccc(F)n2-c2ccc(Br)cc2N1S(=O)(=O)c1ccc(O)cc1 (centres unmarked) [Example 45, 4-[(7-bromo-4-ethyl-1-fluoropyrrolo[1,2-a]quinoxalin-5-(4H)-yl)sulfonyl]phenol] |  |  |  |  | 53% | 12 nM | 95% |  |
| Cc1cc(S(=O)(=O)N2c3cc(F)ccc3-n3cccc3C2C)ccc1O (centres unmarked) [Example 51, 4-[(7-fluoro-4-methylpyrrolo[1,2-a]quinoxalin-5-(4H)-yl)sulfonyl]-2-methylphenol] |  |  |  |  |  | 155 nM | 66% |  |
| CC1c2cccn2-c2ccc(Br)cc2N1S(=O)(=O)c1ccc(O)cc1 (centres unmarked) [Example 52, 4-[(7-bromo-4-methylpyrrolo[1,2-a]quinoxalin-5-(4H)-yl)sulfonyl]phenol] |  |  |  |  |  | 11 nM | 100% |  |
| CCC1c2cccn2-c2ccc(C(F)(F)F)cc2N1S(=O)(=O)c1ccc(O)cc1 (centres unmarked) [Example 56, 4-{[4-ethyl-7-(trifluoromethyl)pyrrolo[1,2-a]quinoxalin-5-(4H)-yl]sulfonyl}phenol] |  |  |  |  |  | 79 nM | 107% |  |
| CCC1c2cccn2-c2ccccc2N1S(=O)(=O)c1ccc(O)c(C)c1 (centres unmarked) [Example 64, 4-[(4-ethylpyrrolo[1,2-a]quinoxalin-5-(4H)-yl)sulfonyl]-2-methylphenol] |  |  |  |  |  | 202 nM | 89% |  |
| CCOC(=O)Oc1ccc(S(=O)(=O)N2c3c(C)cccc3-n3cccc3C2CC)cc1 (centres unmarked) [Example 66, ethyl 4-[(4-ethyl-6-methylpyrrolo[1,2-a]quinoxalin-5-(4H)-yl)sulfonyl]phenyl carbonate] |  |  |  |  |  | 320 nM | 98% |  |
| CCC1c2cccn2-c2cc(F)c(F)cc2N1S(=O)(=O)c1ccc(OS(N)(=O)=O)cc1 (centres unmarked) [Example 105, 4-{4-ethyl-7,8-difluoropyrrolo[1,2-a]quinoxalin-5(4H)-yl]sulfonyl}phenyl sulfamate] |  |  |  |  | 49% |  |  | IC50 (IL-6): 2 nM; IL-6 Efficacy (IL-6): 116% |
| CC1c2cccn2-c2ccc(Br)cc2N1C(=O)c1ccc(O)cc1 (centres unmarked) [Example 108, 4-[(7-bromo-4-methylpyrrolo[1,2-a]quinoxalin-5(4H)-yl)carbonyl]phenol] | 18 nM | 53 nM | 7% | 118% |  |  |  |  |

Continued, in another order:

| EC50 (creatine kinase) | IC50 (IL-6; Homo sapiens, HAECT1) | Structure (SMILES) | Emax (creatine kinase) | Emax (IL-6; Homo sapiens) | CK Efficacy (creatine kinase) | IC50 (ER/Nf-kB) | ER/Nf-kB Efficacy (ER/Nf-kB) | other results |
| --- | --- | --- | --- | --- | --- | --- | --- | --- |
| 13 nM | 1.6 nM | CC[C@@H]1c2cccn2-c2ccc(F)cc2N1C(=O)c1ccc(O)cc1O [121 (R), 4-{[(4R)-4-ethyl-7-fluoropyrrolo[1,2-a]quinoxalin-5(4H)-yl]carbonyl}benzene-1,3-diol] | 36% | 108% |  |  |  |  |
| 64 nM | 72 nM | CC[C@H]1c2cccn2-c2ccc(F)cc2N1C(=O)c1ccc(O)cc1O [121 (S), 4-{[(4S)-4-ethyl-7-fluoropyrrolo[1,2-a]quinoxalin-5(4H)-yl]carbonyl}benzene-1,3-diol] | 32% | 95% |  |  |  |  |
| 68 nM | 1100 nM | CC[C@H]1c2cccn2-c2ccc(Cl)cc2N1C(=O)c1ccc(O)cc1O [125 (S), 4-{[(4S)-7-chloro-4-ethylpyrrolo[1,2-a]quinoxalin-5(4H)-yl]carbonyl}benzene-1,3-diol] | 15% | 81% |  |  |  |  |
| 33 nM | 1330 nM | CC[C@H]1c2cccn2-c2ccc(F)cc2N1C(=O)c1cccc(O)c1 [127 (S), 3-{[(4S)-4-ethyl-7-fluoropyrrolo[1,2-a]quinoxalin-5(4H)-yl]carbonyl}phenol] | 33% | 41% |  |  |  |  |
| 398 nM | 42 nM | CC1c2cccn2-c2ccc(Br)cc2N1C(=O)c1ccc(O)cc1O (centres unmarked) [Example 109, 4-[(7-bromo-4-methylpyrrolo[1,2-a]quinoxalin-5(4H)-yl)carbonyl]benzene-1,3-diol] | 40% | 128% |  |  |  |  |
| 207 nM | 152 nM | CCC1c2cccn2-c2ccc(Br)cc2N1C(=O)c1cccc(O)c1 (centres unmarked) [Example 112, 3-[(7-bromo-4-ethylpyrrolo[1,2-a]quinoxalin-5(4H)-yl)carbonyl]phenol] | 21% | 88% |  |  |  |  |
| 25 nM | 9.5 nM | CCC1c2cccn2-c2ccc(Br)cc2N1C(=O)c1ccc(O)cc1O (centres unmarked) [Example 113, 4-[(7-bromo-4-ethylpyrrolo[1,2-a]quinoxalin-5(4H)-yl)carbonyl]benzene-1,3-diol] | 28% | 101% |  |  |  |  |
| 33 nM | 9 nM | CC(C)(C)C1c2cccn2-c2ccc(Br)cc2N1C(=O)c1ccc(O)cc1O (centres unmarked) [Example 117, 4-[(7-bromo-4-tert-butylpyrrolo[1,2-a]quinoxalin-5(4H)-yl)carbonyl]benzene-1,3-diol] | 42% | 90% |  |  |  |  |
| 636 nM | 29 nM | CC[C@H]1c2ccc(C#N)n2-c2ccc(F)cc2N1C(=O)c1ccc(O)cc1 [Example 129, (4S)-4-ethyl-7-fluoro-5-(4-hydroxybenzoyl)-4,5-dihydropyrrolo[1,2-a]quinoxaline-1-carbonitrile] | -7% | -77% |  |  |  |  |
